For 13 compounds, IC50 results are on record in patent US12281122B1, “PI3K inhibitors” (Cogent Biosciences, Inc., priority 2023, dated 2025).

SMILES strings stand for the structures. Some results are limits rather than exact numbers.

Assay [1] deals with T47D (PI3Kα-H1047R) cell line. The assay can be described thus: HTRF phospho-AKT(S473) cell assay in T47D cells. In kind it is cell-based, human. To be noted: Homo sapiens; T47D (PI3Kα-H1047R) cells, HTRF phospho-AKT(S473), 2 hours compound incubation. Summed up: (§1)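 T47D (PI3Kα-H1047R; RPMI, 10% FBS, insulin) and SKBR3 (wild-type PI3Kα; McCoy's 5A, 10% FBS) cells treated 2 h at 37 °C with 12-point 1:3 dilutions, top 5 μM and 10 μM respectively, ≤0.5% DMSO. SKBR3 stimulated with 70 ng/ml PDGF-BB for the last 15 min; lysate pAKT(S473) by HTRF, IC50 from curves.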

For assay [2], the system named is SKBR3 (PI3Kα-Wild Type) cell line. The assay is described as follows: HTRF phospho-AKT(S473) cell assay in SKBR3 cells. Format: cell-based, human. Particulars: Homo sapiens, SK-BR-3; SKBR3 (PI3Kα-Wild Type) cells, HTRF phospho-AKT(S473), 2 hours compound incubation, PDGF-BB stimulated. Summed up: as §1
In general terms: Time-resolved FRET reads energy transfer from a long-lived donor to a nearby acceptor.

The target of assay [3] is PI3Kα H1047R (Homo sapiens, UniProt P42336, H1047R). The assay can be described thus: PI3Kα H1047R enzyme assay (Transcreener ADP2 TR-FRET Red Assay). In kind it is biochemical. Particulars: purified recombinant full-length protein; 2 hours pre-incubation with compound. The gist of the method:
(§2)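 IC50 taken at 50 POC from a four-parameter logistic fit of TR-FRET (665/615 nm) ADP signal. Reactions used full-length recombinant enzyme, compound pre-incubation for 2 h, then 60 min with ATP and PI(4,5)P2 diC8 substrate at room temperature, pH 7.5 HEPES buffer with 25 mM MgCl2; compounds tested from 50,000 to 0.85 nM.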

Assay [4] deals with PI3Kα (Homo sapiens, UniProt P42336). The assay is described as follows: PI3Kα enzyme assay (Transcreener ADP2 TR-FRET Red Assay). In kind it is biochemical. To be noted: purified recombinant full-length protein; 2 hours pre-incubation with compound; read-out: PI3Kα WT IC50. Summed up:
as §2

Sequence of PI3Kα (P42336 whole entry): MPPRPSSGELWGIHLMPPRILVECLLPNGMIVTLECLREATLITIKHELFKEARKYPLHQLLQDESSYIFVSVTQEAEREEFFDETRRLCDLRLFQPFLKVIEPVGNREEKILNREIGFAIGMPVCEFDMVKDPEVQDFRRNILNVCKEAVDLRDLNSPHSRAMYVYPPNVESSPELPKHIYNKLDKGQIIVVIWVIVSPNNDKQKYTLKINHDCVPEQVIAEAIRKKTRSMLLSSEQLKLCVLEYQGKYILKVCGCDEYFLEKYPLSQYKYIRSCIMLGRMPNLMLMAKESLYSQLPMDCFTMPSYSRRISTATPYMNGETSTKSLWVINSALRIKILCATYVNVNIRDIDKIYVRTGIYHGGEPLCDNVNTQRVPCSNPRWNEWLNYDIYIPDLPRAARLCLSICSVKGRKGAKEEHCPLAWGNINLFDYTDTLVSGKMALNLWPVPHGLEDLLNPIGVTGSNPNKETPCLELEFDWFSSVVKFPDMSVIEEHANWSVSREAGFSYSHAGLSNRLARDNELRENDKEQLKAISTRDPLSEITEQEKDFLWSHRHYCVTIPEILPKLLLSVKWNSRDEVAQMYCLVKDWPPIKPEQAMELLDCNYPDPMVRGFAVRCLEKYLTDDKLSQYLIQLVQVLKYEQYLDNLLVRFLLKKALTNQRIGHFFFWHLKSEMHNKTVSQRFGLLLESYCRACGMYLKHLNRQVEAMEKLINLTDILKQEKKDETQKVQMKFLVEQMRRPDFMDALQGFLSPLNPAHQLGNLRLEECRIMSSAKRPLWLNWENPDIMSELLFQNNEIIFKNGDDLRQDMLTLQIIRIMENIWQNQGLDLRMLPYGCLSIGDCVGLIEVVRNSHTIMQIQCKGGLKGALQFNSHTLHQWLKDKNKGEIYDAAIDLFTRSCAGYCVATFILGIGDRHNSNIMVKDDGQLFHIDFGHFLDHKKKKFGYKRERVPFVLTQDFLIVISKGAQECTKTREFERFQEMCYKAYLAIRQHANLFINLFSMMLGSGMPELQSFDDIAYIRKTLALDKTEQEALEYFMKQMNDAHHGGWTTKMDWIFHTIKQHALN
Sequence of PI3Kα (P27986 2-724 partner): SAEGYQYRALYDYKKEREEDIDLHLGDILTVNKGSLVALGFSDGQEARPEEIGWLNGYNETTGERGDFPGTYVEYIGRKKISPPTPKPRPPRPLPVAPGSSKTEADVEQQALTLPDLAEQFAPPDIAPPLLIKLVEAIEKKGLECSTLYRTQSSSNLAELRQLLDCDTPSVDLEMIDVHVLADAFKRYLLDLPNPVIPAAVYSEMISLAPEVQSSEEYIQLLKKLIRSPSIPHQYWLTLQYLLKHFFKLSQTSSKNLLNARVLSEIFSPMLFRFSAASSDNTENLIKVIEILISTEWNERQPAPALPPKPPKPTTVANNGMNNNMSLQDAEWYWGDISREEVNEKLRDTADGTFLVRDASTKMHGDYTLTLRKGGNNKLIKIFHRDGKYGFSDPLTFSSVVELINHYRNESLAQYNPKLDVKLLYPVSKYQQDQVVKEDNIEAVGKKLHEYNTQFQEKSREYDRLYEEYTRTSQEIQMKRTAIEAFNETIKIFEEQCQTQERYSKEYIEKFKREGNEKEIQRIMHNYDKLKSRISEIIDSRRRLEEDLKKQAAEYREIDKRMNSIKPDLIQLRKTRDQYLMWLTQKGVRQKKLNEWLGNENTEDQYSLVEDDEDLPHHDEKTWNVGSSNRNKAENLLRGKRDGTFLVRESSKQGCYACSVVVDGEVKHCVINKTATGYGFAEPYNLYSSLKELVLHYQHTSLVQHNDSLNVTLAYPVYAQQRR
Sequence of PI3Kα H1047R (P42336 whole entry H1047R): as the sequence (P42336 whole entry) above, with H1047R counted along it
Sequence of PI3Kα H1047R (P27986 2-724 partner): as the sequence (P27986 2-724 partner) above

Turning to `Cc1cc([C@@H](C)Nc2ccc(Cl)nc2C(=O)NS(C)(=O)=O)c2nc(-c3ccc(C)nc3)n(C)c(=O)c2c1` [Compound 84, (R)-6-chloro-3-((1-(3,6-dimethyl-2-(6-methylpyridin-3-yl)-4-oxo-3,4-dihydroquinazolin-8-yl)ethyl)amino)-N-(methylsulfonyl) picolinamide], the IC50 – broadly, the concentration at which inhibition is half-maximal – is 0.25 to 0.5 µM in assay [1], 1 to 5 µM in assay [2], not below 1 µM in assay [3] and not below 1 µM in assay [4].
Turning to `Cc1cc([C@@H](C)Nc2ccc(Cl)nc2C(=O)NS(=O)(=O)N(C)C)c2nc(N3Cc4ccc(F)cc4C3)n(C)c(=O)c2c1` [Compound 67, (R)-6-chloro-N-(N,N-dimethyl-sulfamoyl)-3-((1-(2-(5-fluoro-isoindolin-2-yl)-3,6-dimethyl-4-oxo-3,4-dihydroquinazolin-8-yl)ethyl)amino)picolinamide], the IC50 in assay [1] was 0.5 to 1 µM; in assay [2] it was not below 5 µM; in assay [3], not below 1 µM; in assay [4], not below 1 µM.
Consider `CNS(=O)(=O)NC(=O)c1nc(Cl)ccc1N[C@H](C)c1cc(C)cc2c(=O)n(C)c(N3Cc4ccc(F)cc4C3)nc12` [Compound 73, (R)-6-chloro-3-((1-(2-(5-fluoroisoindolin-2-yl)-3,6-dimethyl-4-oxo-3,4-dihydroquinazolin-8-yl)ethyl)amino)-N-(N-methyl-sulfamoyl)picolinamide], for which the IC50 in assay [1] is less than 0.25 µM; in assay [2], 1 to 5 µM; in assay [3], 0.25 to 0.5 µM; in assay [4] it was not below 1 µM.
`Cc1cc([C@@H](C)Nc2ccc(Cl)nc2C(=O)NS(C)(=O)=O)c2nc(-c3cncc(F)c3)n(C)c(=O)c2c1` [Compound 83, (R)-6-chloro-3-((1-(2-(5-fluoropyridin-3-yl)-3,6-dimethyl-4-oxo-3,4-dihydroquinazolin-8-yl)ethyl)amino)-N-(methylsulfonyl) picolinamide]: the IC50 in assay [1] is 0.25 to 0.5 µM; in assay [2], 1 to 5 µM; in assay [3], not below 1 µM; in assay [4], not below 1 µM.
On to `C[C@@H](Nc1ccc(Cl)nc1C(=O)NS(C)(=O)=O)c1cccc2c(=O)n(C)c(N3CCC(F)(F)CC3)nc12` [Compound 39, (R)-6-chloro-3-((1-(2-(4,4-difluoropiperidin-1-yl)-3-methyl-4-oxo-3,4-dihydroquinazolin-8-yl)ethyl)amino)-N-(methylsulfonyl) picolinamide], for which the IC50 in assay [1] is less than 0.25 µM; in assay [2], 1 to 5 µM; in assay [3], 0.5 to 1 µM; in assay [4], not below 1 µM.
Consider `Cc1cc2c(=O)n(C)c(N3Cc4ccc(F)cc4C3)nc2c([C@@H](C)Nc2ccc(Cl)nc2C(=O)NS(C)(=O)=O)n1` [Compound 72, (R)-6-chloro-3-((1-(2-(5-fluoroisoindolin-2-yl)-3,6-dimethyl-4-oxo-3,4-dihydro-pyrido[3,4-d]pyrimidin-8-yl)ethyl)amino)-N-(methylsulfonyl)picolinamide], for which the IC50 in assay [1] was 0.25 to 0.5 µM; in assay [2], 1 to 5 µM; in assay [3] it was 0.1 to 0.25 µM; in assay [4], not below 1 µM.
As for `Cc1cc([C@@H](C)Nc2ccc(Cl)nc2C(=O)NS(C)(=O)=O)c2nc(N3Cc4cnn(C)c4C3)n(C)c(=O)c2c1` [Compound 4, (R)-6-chloro-3-((1-(3,6-dimethyl-2-(1-methyl-4,6-dihydropyrrolo[3,4-c]pyrazol-5(1H)-yl)-4-oxo-3,4-dihydroquinazolin-8-yl)ethyl)amino)-N-(methylsulfonyl) picolinamide], the IC50 is less than 0.25 µM in assay [1], 1 to 5 µM in assay [2], 0.25 to 0.5 µM in assay [3] and not below 1 µM in assay [4].
On to `Cc1cc([C@@H](C)Nc2ccc(Cl)nc2C(=O)NS(C)(=O)=O)c2nc(NC(C)(C)C)n(C)c(=O)c2c1` [Compound 7, (R)-3-((1-(2-(tert-butylamino)-3,6-dimethyl-4-oxo-3,4-dihydroquinazolin-8-yl)ethyl)amino)-6-chloro-N-(methylsulfonyl) picolinamide], for which the IC50 in assay [1] is 1 to 5 µM; in assay [2], not below 5 µM; in assay [3], not below 1 µM; in assay [4] it was not below 1 µM.
Take `Cc1cc([C@@H](C)Nc2cc(C)c(Cl)nc2C(=O)NS(C)(=O)=O)c2nc(N3Cc4ccc(F)cc4C3)n(C)c(=O)c2c1` [Compound 35, (R)-6-chloro-3-((1-(2-(5-fluoroisoindolin-2-yl)-3,6-dimethyl-4-oxo-3,4-dihydroquinazolin-8-yl)ethyl)amino)-5-methyl-N-(methylsulfonyl) picolinamide]: the IC50 in assay [1] is 1 to 5 µM; in assay [2] it was not below 5 µM; in assay [3], not below 1 µM; in assay [4], not below 1 µM.
Turning to `Cc1cc([C@@H](C)Nc2ccc(Cl)nc2C(=O)NS(C)(=O)=O)c2nc(N3CCC(F)(F)CC3)n(C)c(=O)c2c1` [Compound 57, (R)-6-chloro-3-((1-(2-(4,4-difluoropiperidin-1-yl)-3,6-dimethyl-4-oxo-3,4-dihydroquinazolin-8-yl)ethyl)amino)-N-(methylsulfonyl) picolinamide], the IC50 in assay [1] is 0.5 to 1 µM; in assay [2] it was 1 to 5 µM; in assay [3] it was not below 1 µM; in assay [4], not below 1 µM.
Consider `Cc1cc([C@@H](C)Nc2ccc(Cl)nc2C(=O)NS(C)(=O)=O)c2nc(N3CCC(F)(F)C[C@@H]3C)n(C)c(=O)c2c1` (mixture of isomers) [Compound 12, 6-chloro-3-(((R)-1-(2-((S)-4,4-difluoro-2-methylpiperidin-1-yl)-3,6-dimethyl-4-oxo-3,4-dihydroquinazolin-8-yl)ethyl)amino)-N-(methylsulfonyl) picolinamide AND 6-chloro-3-(((R)-1-(2-((R)-4,4-difluoro-2-methylpiperidin-1-yl)-3,6-dimethyl-4-oxo-3,4-dihydroquinazolin-8-yl)ethyl)amino)-N-(methylsulfonyl) picolinamide], for which the IC50 in assay [1] is 0.25 to 0.5 µM; in assay [2] it was 1 to 5 µM; in assay [3], 0.25 to 0.5 µM; in assay [4], not below 1 µM.
As to `CNC(=O)NS(=O)(=O)c1nc(Cl)ccc1N[C@H](C)c1cc(C)cc2c(=O)n(C)c(N3Cc4ccc(F)cc4C3)nc12` [Compound 70, (R)-6-chloro-3-((1-(2-(5-fluoro-isoindolin-2-yl)-3,6-dimethyl-4-oxo-3,4-dihydroquinazolin-8-yl)ethyl)amino)-N-(methylcarb-amoyl)pyridine-2-sulfonamide], the IC50 was 1 to 5 µM in assay [1], not below 5 µM in assay [2], 0.25 to 0.5 µM in assay [3] and not below 1 µM in assay [4].
Regarding `C[C@@H](Nc1ccc(Cl)nc1C(=O)NS(C)(=O)=O)c1cc(F)cc2c(=O)n(C)c(N3CCc4c(cnn4C)C3)nc12` [Compound 30, (R)-6-chloro-3-((1-(6-fluoro-3-methyl-2-(1-methyl-1,4,6,7-tetrahydro-5H-pyrazolo[4,3-c]pyridin-5-yl)-4-oxo-3,4-dihydroquinazolin-8-yl)ethyl)amino)-N-(methylsulfonyl) picolinamide], the IC50 is less than 0.25 µM in assay [1], 1 to 5 µM in assay [2], 0.1 to 0.25 µM in assay [3] and not below 1 µM in assay [4].
